Measurements as given in patent publication US5877185A, “Synergistic compositions useful as anti-tumor agents” (priority 1995, dated 1999).
Entries after “also recorded” stand apart in the source; their conditions may differ.

How the values were obtained:
[1] = weakly basic conditions; cited from earlier work
[2] = tested on: SIV 23686 (AZT-resistant); experiment: AZT-resistant SIV propagation (syncytia formation), SIV 23686; format: cell-based; details: INO2 BA 0, BSO 0.01 mM
Description: (§1) CEM × 174 (3 × 10^5 /ml) were infected with equal doses o
(§2) SIVmac239 or virus isolates from SIVmac239infected rhesus macaques (MMU
(§3) 23686, 22803). Three days postinfection, INO2 BA concentrations
(§4) ranging from 0 to 300 μM with or without BSO were added, and incubated
(§5) for an additional 3 days. Cell cultures were then examined for syncytia
(§6) formation. The number of syncytia in cell cultures was counted in
(§7) arbitration fields under 40× magnification and scored as follows: […]

Molt-4 cells = experiment: time course of cell killing alone and with BSO, Molt-4; format: cell-based; details: Molt-4, 2-3 day period; 4 μM drug, 1 mM BSO
Description: (§8) Molt 4-cells were seeded at a density of 0.05×10^6 cell/ml in the recommended growth medium in the absence or the presence of drugs as indicated. Cells were incubated at 37° C. in a 5% CO2 atmosphere and proliferation was monitored in 14 hr. by cell counting in a hemacytometer. .smallcircle., untreated control; .circle-solid., treated with 4 μM 4-iodo-3-nitrobenzoic acid; .gradient., treated with 1 mM BSO; .tangle-soliddn., treated with 4 μM-iodo-3-nitrobenzoic acid and 1 mM BSO; .quadrature., treated with 4 μM 4-INO2 BA; .box-solid., treated with 1 mM BSO; .gradient., treated with 4 μM INO2 BA and 1 mM BSO. L-1210 cells were seeded at a density of 0.05×10^6 cells/ml either from untreated stock suspensions or from 24-hr. pretreated (0.2×10^6 cells/ml) suspensions. .smallcircle., untreated control; .circle-solid., treated with […] NOBA; .gradient., treated with 1 mM BSO; .tangle-soliddn., 24-hr pretreatment with 1 mM BSO then treated with 4 μM NOBA.
(§9) A time course of the cell killings by 4-iodo-3-nitrobenzoic acid, INO2 BA and NOBA, each alone and in combination with BSO was obtained. Molt-4 cells were seeded at a density of 0.05×10^6 cells/ml in the recommended growth medium in the absence or presence of drugs as indicated in FIG. 3. Drugs were added to the wells immediately after seeding from 10-40 mM stock solution in DMSO. BSO was added from a 100 mM aqueous stock solution. Cells were incubated at 37° C. in a 5% CO2 atmosphere and proliferation was monitored in 14 hours by cell counting in a hemacytometer.

[3] = tested on: SIV 22803 (AZT-resistant); experiment: AZT-resistant SIV propagation (syncytia formation), SIV 22803; format: cell-based; details: INO2 BA 0, BSO 0.05 mM
Description: as §1, §2, §3, §4, §5, §6, §7

L-1210 cells = experiment: time course of cell killing alone and with BSO, L-1210; format: cell-based, murine; details: L-1210, 2-3 day period; 1 mM BSO
Description: as §8, §9

cellular GSH = cellular GSH levels under BSO; format: cell-based; details: at the concentrations applied
Description: The role of cellular GSH was determined by the simultaneous addition of INO2 BA and BSO (an inhibitor of GSH biosynthesis, Meister, Pharmacology and Therapeutics 51:155-194 (1991), which at the concentrations applied diminished cellular GSH levels below 5-10% of controls.) The results are tabulated below in Table 3.

[4] = tested on: SIVmac239 or virus isolates in CEM ×174 cells; experiment: SIV replication in CEM ×174 cells, SIV p27 core antigen assay; format: cell-based
Text: Infected cell cultures described in FIG. 4 were used for determination of supernatant virus titers by SIV p27 core antigen assay as described in Example XIV. The ordinate represents p27 ELISA performed on day 10 of the assay and the abscissa represents the concentration of INO2 BA alone (rear rows in panels A, B and C) and in combination with BSO (front rows in panels A, B and C).
CEM ×174 cells (3×10^5 /ml) were infected with 3.75 TCID50 /ml (50% tissue culture infectious dosage per ml of cell suspension) stock solution of SIVmac239 or virus isolates from SIVmac239-infected rhesus macaques on day 0. Uniform infection of cells was ensured by the infection of one cell population only per virus preparation. Three days post-infection, the cells were distributed (500 μl/well) into individual wells of a 24-well plate. Fresh medium containing INO2 BA concentrations ranging from 0 to 300 μM and/or BSO concentrations ranging from 0 to 0.25 mM were added to establish final 1-ml reaction volumes, and the cultures were further incubated for 4 days. The wells were then replenished with fresh CEM ×174 cells (3×10^5 /ml), INO2 BA and/or BSO were re-added at the same concentrations as in the original incubates, and incubation was continued for an additional 3 days. This procedure intends to mimic conditions of in vivo chemotherapy. Cell viability and virus titers in the supernatant were determined on day 10 (3 days after the addition of new cells) by the tetrazolium (MTT) method of Hansen et al., J. Immunol. Methods 119:208-210 (1982) and by the SIV p27 and reverse transcriptase (RT) assays described by Chuang et al., FEBS Lett. 326:140-144 (1993), respectively.
SIVmac p27 core antigen levels were determined by an enzyme immunoassay provided by Coulter Corp. (Hialeah, Fla.). The assay was performed according to the manufacturer's specifications.

[5] = literature; cited from earlier work
tumor cells = details: Hakam et al.; cited from earlier work
MDA 468 = experiment: effect of nitroso- and nitro-compounds in mammary cancer cells (monolayer), MDA 468; format: cell-based, human; details: drug exposure 24-48 hours
Description: II. I50 and LD100 Values for Nitroso- and Nitro-Compounds in (A) Mammary Cancer Cells (monolayer cultures) and in (B) L-1210 Murine Leukemia Cells (suspension culture).
Seeding was at 2×10^4 or 0.8×10^4 cells/cm^2, drugs were added 6-18 hours after seeding, and drug exposure time was 24-48 hours.

[6] = reduction by GSH and ascorbate in in vitro chemical tests; format: physicochemical
pADPRT [7] = experiment: pADPRT zinc content / zinc ejection; format: biochemical; details: 25° C.
Description: FIG. 2A is a graph comparing the effects of NOBA and INOBA on the enzyme activity and zinc content of pADPRT. Inactivation was performed as described in Example III. In these experiments ^65 Zn^2+ -labeled pADPRT was used. The Zn^2+ content of pADPRT (upper panel) was determined as follows: two parallels of aliquots (4 μl) were pipetted into 500 μl of ice-cold washing solution (50 mM Tris, pH 7.7, 10 mM 2-mercaptoethanol and 0.5 mM EDTA) then filtered onto GF/C disks presoaked in washing solution (cold), quickly washed 4 times with 1 ml of ice-cold washing solution, dried, and the radioactivity determined. The protein-bound ^65 Zn^2+ is shown as percent of the untreated sample. Enzyme assays (lower panel) were performed as in FIG. 1.
For the release of Zn^2+ from transblotted pADPRT, the enzyme (3 μg per lane) was separated on SDS-PAGE, transblotted onto a nitrocellulose membrane, and renatured in the presence of ^65 ZnCl2. […] After incubation, 1 ml of the supernatant was counted for radioactivity, and the strips were washed 3 times with 2 ml of 50 mM Tris-HCl pH 7.4), 0.5 mM EDTA and 10 Mm 2-mercaptoethanol, and then dried and exposed to X-ray film. The intensity of the autoradiographic spots was quantitated by a scanner. […]

pADPRT [8] = experiment: pADPRT enzyme inactivation; format: biochemical; details: 2 hr at 25° C.
Description: FIG. 1 is a graph comparing the inactivation of pADPRT by NOBA and INOBA. pADPRT inactivation was performed in 20-μl volumes of buffer containing 50 mM Hepes (pH 7.4), 100 mM KCl, 0.5 mM EDTA, pADPRT (0.4 μg/μl) and different concentrations of inactivators. Inactivators were serially diluted in the above buffer from a 20 mM stock solution in DMF. The DMF concentration (2.5%) was kept constant in the inactivation mixes. After 2 hr. at 25° C., aliquots (3 μl) were removed for assay of enzyme activity in a volume of assay mix (200 μl) in which the inactivators were dilute enough not to act as inhibitors. The assay mix consisted of 100 mM Tris (pH 7.7), 14 mM 2-mercaptoethanol, 0.1 mM [^32 P]-NAD^+, 0.2 mg/ml coDNA and 0.1 mg/ml histones. The incorporated ^32 P, proportional to enzyme activity, is plotted as percent of the untreated sample.
NOBA and INOBA were assayed for their respective effects on pADPRT enzyme inactivation and pADPRT zinc content according to the methods described in Buki et al., FEBS Lett. 290:181-185 (1991) at pH 7.0. pADPRT inactivation was performed in 20-μl volumes of buffer containing 50 mM Hepes (pH 7.4), 100 mM KCl, 0.5 mM EDTA, pADPRT (0.4 μg/μl) and different concentrations of inactivators. Inactivators were serially diluted in the above buffer from a 20 mM stock solution in DMF. The DMF concentration (2.5%) was kept constant in the inactivation mixes. […]

NC(=O)c1cccc(N(O)S(=O)(=O)CC(N)C(=O)O)c1 (centres unmarked)
release of C-nitroso molecule [1]: releases the C-nitroso molecule at weakly basic conditions

CCCCS(=N)(=O)CCC(N)C(=O)O (racemic) [BSO, DL-buthionine sulfoximine, reference compound]
Syncytia [2]: +++ (20-30)
effect on cell proliferation (Molt-4 cells): no significant effect
Syncytia [3]: ++++ (over 30)
effect on cell proliferation (L-1210 cells): no significant effect
cellular GSH level (cellular GSH): 5-10 % of controls
effect on p27 formation / SIV replication ([4]; BSO alone, FIG. 5D): no effect
toxicity of BSO [5]: very low; also recorded: non-toxicity

Nc1ccc2oc(=O)ccc2c1 [6-amino-1,2-benzopyrone]
anti-tumor effects (tumor cells): anti-tumor effects

O=c1ccc2c(I)c([N+](=O)[O-])ccc2o1 [INO2 BP, 5-iodo-6-nitro-1,2-benzopyrone]
I50 (MDA 468): 260 Namomoles/cm × 10^4 cells

NC(=O)c1ccc(I)c(N=O)c1 [INOBA, 4-Iodo-3-Nitrosobenzamide]
reduction to the corresponding hydroxyl amines [6]: rapidly reduced
effect of GSH depletion by BSO on inhibitory effect on SIV replication ([4]; with BSO, CEM ×174 cells): synergistically enhances
time in which zinc ejection was complete (pADPRT [7]): ≤ 2 h
inactivation of pADPRT, NOBA vs INOBA (pADPRT [8]): more effective inactivator of pADPRT
